In patent publication US11021444B2, “Antiviral compounds” (priority 2013, dated 2021):
Read-outs that look alike come from different tables or passages of the source.

Columns and labels:
[1] = tested on: Respiratory Syncytial Virus (RSV) long strain; experiment: microbe, parasite or virus in culture; type: cell-based; details: human respiratory syncytial virus, Tables A and B list compounds by EC50 band
Procedure, shortened: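 HEp-2 cells infected with 100 TCID50 virus per well, compounds in duplicate, 9-point 1/3 dilutions from 100 μM or 1 μM, 1% DMSO. After 5 days at 37 °C, cell viability (CPE protection) read by CCK-8 absorbance at 450 nm, 630 nm background.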

[2] = Cytotoxicity Determination (CCK-8, without addition of virus); type: cell-based; details: human, 50% cytotoxicity concentration (CC50)
Procedure, shortened: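 HEp-2 cells were seeded at 1,500 cells/well one day before compound addition. Compounds were tested without virus in duplicate over 7 points from 100 μM in 1/2 steps, with 1% final DMSO, 5 days at 37 °C, 5% CO2. Viability was read by CCK-8 after 3-4 hours.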

[3] = target: recombinant RSV complex (Human respiratory syncytial virus A, UniProt P28887); experiment: RSV Polymerase Inhibition Assay; type: biochemical
recombinant RSV complex, sequence (P28887 whole entry): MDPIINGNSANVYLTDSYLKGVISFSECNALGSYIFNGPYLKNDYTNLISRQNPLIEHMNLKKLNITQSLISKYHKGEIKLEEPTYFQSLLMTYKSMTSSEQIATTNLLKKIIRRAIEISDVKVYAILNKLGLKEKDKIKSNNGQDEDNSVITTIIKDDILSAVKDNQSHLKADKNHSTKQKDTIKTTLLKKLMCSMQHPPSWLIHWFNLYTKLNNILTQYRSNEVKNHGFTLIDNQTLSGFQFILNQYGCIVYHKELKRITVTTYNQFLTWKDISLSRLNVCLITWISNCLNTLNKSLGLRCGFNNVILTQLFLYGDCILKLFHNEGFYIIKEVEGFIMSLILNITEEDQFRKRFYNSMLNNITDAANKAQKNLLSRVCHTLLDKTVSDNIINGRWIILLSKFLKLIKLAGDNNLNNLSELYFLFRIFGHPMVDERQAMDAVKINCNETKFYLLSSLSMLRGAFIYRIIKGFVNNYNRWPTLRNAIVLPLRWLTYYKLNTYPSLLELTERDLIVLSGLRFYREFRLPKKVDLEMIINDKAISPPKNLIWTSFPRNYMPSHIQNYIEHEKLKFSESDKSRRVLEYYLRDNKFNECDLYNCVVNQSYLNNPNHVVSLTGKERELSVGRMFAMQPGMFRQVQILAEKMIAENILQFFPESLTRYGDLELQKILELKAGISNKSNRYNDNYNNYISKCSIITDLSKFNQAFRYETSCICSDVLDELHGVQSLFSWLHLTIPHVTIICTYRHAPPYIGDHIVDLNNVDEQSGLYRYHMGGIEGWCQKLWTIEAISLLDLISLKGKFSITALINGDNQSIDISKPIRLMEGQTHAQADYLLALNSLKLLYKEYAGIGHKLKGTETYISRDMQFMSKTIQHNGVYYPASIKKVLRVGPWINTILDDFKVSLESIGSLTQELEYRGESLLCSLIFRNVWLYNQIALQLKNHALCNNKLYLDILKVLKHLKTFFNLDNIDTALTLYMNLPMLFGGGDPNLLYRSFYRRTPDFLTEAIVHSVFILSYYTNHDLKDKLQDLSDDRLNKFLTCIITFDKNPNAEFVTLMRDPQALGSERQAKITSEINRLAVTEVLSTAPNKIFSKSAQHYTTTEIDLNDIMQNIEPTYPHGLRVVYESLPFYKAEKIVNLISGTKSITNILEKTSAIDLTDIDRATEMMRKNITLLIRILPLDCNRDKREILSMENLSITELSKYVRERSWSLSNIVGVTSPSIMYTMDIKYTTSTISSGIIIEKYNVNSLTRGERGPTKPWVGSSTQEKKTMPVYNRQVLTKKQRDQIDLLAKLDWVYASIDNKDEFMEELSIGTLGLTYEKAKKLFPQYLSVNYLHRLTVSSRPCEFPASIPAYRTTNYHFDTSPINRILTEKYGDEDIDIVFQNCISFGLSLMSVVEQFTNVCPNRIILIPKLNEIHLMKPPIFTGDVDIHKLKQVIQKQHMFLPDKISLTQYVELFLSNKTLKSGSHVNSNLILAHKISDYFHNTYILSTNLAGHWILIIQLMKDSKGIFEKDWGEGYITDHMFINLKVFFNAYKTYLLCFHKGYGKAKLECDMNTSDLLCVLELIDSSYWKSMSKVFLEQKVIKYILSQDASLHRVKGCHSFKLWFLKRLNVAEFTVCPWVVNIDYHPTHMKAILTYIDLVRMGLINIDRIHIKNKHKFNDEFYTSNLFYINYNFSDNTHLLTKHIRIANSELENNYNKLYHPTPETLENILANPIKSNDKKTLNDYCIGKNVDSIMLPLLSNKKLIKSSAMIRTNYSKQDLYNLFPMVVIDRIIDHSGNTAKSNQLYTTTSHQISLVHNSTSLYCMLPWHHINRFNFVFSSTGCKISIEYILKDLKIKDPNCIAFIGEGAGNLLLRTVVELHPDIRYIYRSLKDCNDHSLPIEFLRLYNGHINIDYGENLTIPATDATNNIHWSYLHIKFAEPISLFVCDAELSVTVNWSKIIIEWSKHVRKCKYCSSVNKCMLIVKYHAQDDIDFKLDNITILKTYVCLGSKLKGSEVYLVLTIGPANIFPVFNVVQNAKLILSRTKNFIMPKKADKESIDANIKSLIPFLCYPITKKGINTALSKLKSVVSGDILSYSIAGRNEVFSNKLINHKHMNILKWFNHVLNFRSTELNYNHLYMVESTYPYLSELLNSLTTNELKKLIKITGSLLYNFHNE
recombinant RSV complex, sequence (P03421 whole entry, further chain): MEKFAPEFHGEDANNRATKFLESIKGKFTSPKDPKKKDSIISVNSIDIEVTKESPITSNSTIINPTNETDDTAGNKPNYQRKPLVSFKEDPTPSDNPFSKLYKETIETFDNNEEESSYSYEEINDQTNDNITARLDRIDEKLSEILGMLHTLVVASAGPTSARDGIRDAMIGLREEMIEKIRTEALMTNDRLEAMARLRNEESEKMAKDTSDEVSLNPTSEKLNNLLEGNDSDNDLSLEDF
Procedure, shortened: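 10 nM recombinant RSV polymerase complex in Tris-HCl pH 7.5, 6 mM MgCl2 with RNA oligonucleotide template and radionucleotides, incubated 2 h at 30 °C with increasing inhibitor concentrations. Reaction stopped with EDTA; radiolabeled RNA product counted by scintillation.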

[4] = HEp-2, 120 h, read-out: 50% effective concentration (EC50), HEp-2 cells infected with RSV long strain, 5 days, CCK-8 readout
[5] = 120 h, read-out: 50% effective concentration (EC50), HEp-2 cells infected with RSV long strain, 5 days, CCK-8 readout

COc1cc(C(=O)NCC(O)(c2ccc(OC)c(-c3ccc(F)c(Cl)c3)n2)C(F)(F)F)ccc1OC1CCOC1 (stereo not drawn) [Compound 235]
EC50 [1, 4]: < 1 µM
CC50 at 5 days [2]: 10 to 100 µM
IC50 [3]: < 1 µM

CCc1cc(-c2ccc(F)cc2)nc(C(C)(O)CNC(=O)c2ccc(OCCO)c(OC)c2)c1 (stereo not drawn) [Compound 353]
EC50 [1, 4]: < 1 µM
CC50 at 5 days [2]: > 100 µM
IC50 [3]: < 1 µM

Cc1nc(C(=O)NCC(O)(c2cc(C(C)(C)N)cc(-c3ccc(F)c(Cl)c3)n2)C(F)(F)F)cs1 (stereo not drawn) [Compound 279]
EC50 [1, 4]: 1 to 50 µM
CC50 at 5 days [2]: 10 to 100 µM
IC50 [3]: < 1 µM

COc1cc(C(=O)NCC(O)(c2cc(C(C)(C)N)cc(-c3ccc(F)c(Cl)c3)n2)C(F)(F)F)ccc1NS(C)(=O)=O (stereo not drawn) [Compound 593]
EC50 [1, 4]: < 1 µM
CC50 at 5 days [2]: 10 to 100 µM
IC50 [3]: < 1 µM

COc1cc(C(=O)NCC(O)(c2cc3c(c(-c4ccc(F)c(Cl)c4)n2)OCC3(C)C)C(F)(F)F)cc2ccc(C(N)=O)nc12 (stereo not drawn) [Compound 214]
EC50 [1, 4]: < 1 µM
CC50 at 5 days [2]: 10 to 100 µM
IC50 [3]: < 1 µM

COc1cc(C(=O)NCC(O)(c2cc3c(c(-c4ccc(F)c(Cl)c4)n2)OCC3(C)C)C(F)(F)F)cc2ccc(C#N)nc12 (stereo not drawn) [Compound 215]
EC50 [1, 4]: 1 to 50 µM
CC50 at 5 days [2]: 10 to 100 µM
IC50 [3]: < 1 µM

COc1cc(C(=O)NCC(O)(c2cc3c(c(-c4ccc(F)c(Cl)c4)n2)OCC3(C)N[S+]([O-])C(C)(C)C)C(F)(F)F)ccc1OC1CC1 (stereo not drawn) [Compound 482]
EC50 [1, 4]: < 1 µM
CC50 at 5 days [2]: 10 to 100 µM
IC50 [3]: < 1 µM

COc1cc(C(=O)NCC(C)(O)c2cc(CO)cc(-c3ccc(F)c(Cl)c3)n2)ccc1OCC1CC1 (stereo not drawn) [Compound 101]
EC50 [1, 4]: < 1 µM
CC50 at 5 days [2]: 10 to 100 µM
IC50 [3]: < 1 µM

COc1cc(C(=O)NCC(O)(CN2CCCC2)c2ccc(OC)c(-c3ccc(F)c(Cl)c3)n2)ccc1OCCO (stereo not drawn) [Compound 187]
EC50 [1, 4]: 1 to 50 µM
CC50 at 5 days [2]: > 100 µM
IC50 [3]: < 10 µM

COc1cc(C(=O)NCC(O)(c2cc3c(c(-c4ccc(F)cc4)n2)OCC3(N)C(C)C)C(F)(F)F)ccc1OCCO (stereo not drawn) [Compound 565]
EC50 [1, 4]: < 1 µM
CC50 at 5 days [2]: 10 to 100 µM
IC50 [3]: < 1 µM

COc1cc(C(=O)NCC(O)(c2ccc(OC)c(-c3ccc(F)c(Cl)c3)n2)C2CC2)ccc1CCCO (stereo not drawn) [Compound 426]
EC50 [1, 4]: < 1 µM
CC50 at 5 days [2]: 10 to 100 µM
IC50 [3]: < 10 µM

COc1cc(C(=O)NC[C@](O)(c2cc3c(c(-c4ccc(F)cc4)n2)OC[C@]3(C)N)C(F)(F)F)ccc1OC[C@@H](C)O [Compound 631]
EC50 [1, 4]: < 1 µM
CC50 at 5 days [2]: 10 to 100 µM
IC50 [3]: < 1 µM

COc1cc(C(=O)NCC(=O)c2cc3c(c(-c4ccc(F)c(Cl)c4)n2)OCC3(C)O)ccc1OC1CC1 (stereo not drawn) [Compound 473]
EC50 [1, 4]: < 1 µM
CC50 at 5 days [2]: 10 to 100 µM
IC50 [3]: < 1 µM

COc1cc(C(=O)NCC(O)(c2cc(C(C)(C)N)cc(-c3ccc(F)c(Cl)c3)n2)C(F)(F)F)ccc1NC(C)=O (stereo not drawn) [Compound 592]
EC50 [1, 4]: < 1 µM
CC50 at 5 days [2]: 10 to 100 µM
IC50 [3]: < 10 µM

COc1cc(C(=O)NCC(C)(O)c2ncc(OC)c(-c3ccc(F)c(Cl)c3)n2)ccc1OCCO (stereo not drawn) [Compound 109]
EC50 [1, 4]: 1 to 50 µM
CC50 at 5 days [2]: > 100 µM
IC50 [3]: < 10 µM

COc1cc(C(=O)NCC(O)(c2cc3c(c(-c4ccc(F)cc4)n2)OCC3(N)C(C)C)C(F)(F)F)ccc1OC[C@@H](C)O (stereo partly drawn) [Compound 568]
EC50 [1, 4]: < 1 µM
CC50 at 5 days [2]: 10 to 100 µM
IC50 [3]: < 1 µM

COc1cc(C(=O)NCC(O)(c2ccc(OCCN)c(-c3ccc(F)cc3)n2)C(F)(F)F)ccc1OC1CC1 (stereo not drawn) [Compound 479]
EC50 [1, 4]: < 1 µM
CC50 at 5 days [2]: 10 to 100 µM
IC50 [3]: < 1 µM

COc1cc(C(=O)NCC(O)(c2cc3c(c(-c4ccc(F)c(Cl)c4)n2)OCC3(C)C)C(F)(F)F)ccc1OCC(N)=O (stereo not drawn) [Compound 210]
EC50 [1, 5]: < 1 µM
CC50 at 5 days [2]: 10 to 100 µM
IC50 [3]: < 1 µM

COc1cc(C(=O)NC[C@@](O)(c2cc(C(C)(C)N)cc(-c3ccc(F)cc3)n2)C(F)(F)F)ccc1OC1CC1 [Compound 495]
EC50 [1, 4]: < 1 µM
CC50 at 5 days [2]: 10 to 100 µM
IC50 [3]: < 1 µM

COc1cc(C(=O)NCC(O)(c2ccc(OC)c(-c3ccc(F)cc3)n2)C(F)(F)F)ccc1OCCO (stereo not drawn) [Compound 619]
EC50 [1, 4]: < 1 µM
CC50 at 5 days [2]: 10 to 100 µM
IC50 [3]: < 1 µM

COc1cc(C(=O)NCC(F)(F)c2ccc(OC)c(-c3ccc(F)c(Cl)c3)n2)ccc1OCCO [Compound 150]
EC50 [1, 5]: 1 to 50 µM
CC50 at 5 days [2]: > 100 µM
IC50 [3]: < 10 µM

COc1ccc(C(=O)NCC(C)(O)c2cccc(-c3csc4c(F)cccc34)n2)cc1OC (stereo not drawn) [Compound 142]
EC50 [1, 4]: < 1 µM
CC50 at 5 days [2]: 10 to 100 µM
IC50 [3]: < 1 µM
